Here are results for 2 molecules from US20120095108A1, “COMPOSITION CONTAINING MICROBIAL ZEAXANTHIN AND PREPARATION THEREOF” (Vigenent Inc., priority 2010, published 2012).

The nature of data set [1]: Lipid peroxidation inhibitory activity, ferric thiocyanate method. The following applies: 60 μg/ml; OD 500 nm; 24 hours incubation 37° C. It is filed as biochemical. As to the method: Microbial zeaxanthin was dissolved in 0.2 M potassium phosphate buffer and mixed with linoleic acid emulsion mixture prepared by potassium phosphate buffer. After 24 hours incubation in 37° C., the mixture was added with 75% ethanol, ammonium thiocyanate, and iron(II) chloroide tetrahydrate. The absorbance at 500 nm was determined after 1 min incubation. Inhibtion activity=[1−(Abs of sample/Abs of blank)]*100%.

Data set [2] is described as follows: Lipid peroxidation inhibitory activity, conjugated diene method. The following applies: 30 μg/ml; OD 234 nm; 15 hour incubation 37° C. In kind it is biochemical. As to the method: Microbial zeaxanthin was dissolved in 0.2 M potassium phosphate buffer and mixed with linoleic acid emulsion mixture prepared by potassium phosphate buffer. The absorbance of 234 nm was determined after 15 hour incubation in 37° C. Inhibition activity=[1−(Abs of sample/Abs of blank)]*100%.

Data set [3] in a line: Total antioxidant activity, TEAC (trolox equivalent antioxidant capacity) method. In kind it is biochemical. The following applies: OD 734 nm. As to the method:
Microbial zeaxanthin was dissolved in 0.01M sodium phosphate buffer and mixed with 2,2′-azino-bis(3-ethylbenzthiazoline-6-sulphonic acid) containing potassium persulfate. The absorbance at 734 nm was determined after 30 min incubation. Inhibition activity=[1−(Abs of sample/Abs of blank)]*100%.

The nature of data set [4]: Lipid peroxidation inhibitory activity, liposome-TBARS method. It is filed as biochemical. The following applies: OD 532 nm. As to the method: Microbial zeaxanthin was dissolved in methanol and mixed with liposome emulsion, iron(III) chloride, and ascorbic acid. After 2 hours water bath in 37° C. the mixture was added with butylated hydorxytoluene, thibarbituric acid, and trichloroacetic acid. After 20 min of water bath (100° C.), the mixture was chilled with ice. The absorbance at 532 nm was determined. MDA (malondialdehyde) inhibiton activity=[1−(Abs of sample/Abs of blank)]*100%.

The conditions of data set [5]: cited from earlier work.
Data set [6] can be described thus: Antioxidant activity, DPPH free radical scavenging method. It is filed as biochemical. The following applies: OD 517 nm. As to the method:
Microbial zeaxanthin was dissolved in methanol and mixed with 2,2-diphenyl-1-picrylhydrazyl in methanol. The absorbance at 517 nm was determined after 30 min incubation. Inhibition activity=[1−(Abs of sample/Abs of blank)]*100%.
In general terms: Loss of DPPH colour is used to gauge radical scavenging.

The test system of data set [7] is Human skin fibroblast cells (CCD-966SK cell line). As to the kind of experiment: Photoprotection activity: viability of UV-irradiated human skin fibroblast cells. It is filed as cell-based. The following applies: 15 min UV irradiation, determined at 24 hours. On the procedure: Human skin fibroblast cells (CCD-966SK cell line) were cultured on the dish. The cells were treated with microbial zeaxanthin dissolved in dimethyl sulfoxide. After treated for 24 hours the dishes were irradiated UV for 15 min and the cells were incubated for 24 hours. The cells were detached by trypsin and counted by hemocytometer. The protection effect of microbial zeaxanthin on the viability of fibroblast cells is provided (FIG. 3).
Skin fibroblast cells, the essential cells of skin, are responsible for the production of collagen, a structural component of the skin (Stanley et al., (1985) J Invest Dermatol. 85:542-545; Olsen et al., (1989) J. Clin. Invest. 83: 791-795; Akagi et al., (1999) J. Invest. Dermatol. 113: 246-250). Collagen reduction is a biological phenomenon responsible for the wrinkled appearance found in the aged skin caused either intrinsic (chronologic aging) or extrinsic (e.g., photoaging: exposure to UV irradiation) (Burke et al., (1994) Exp Gerontol 29:37-53; Fisher et al., (1997) New Eng J Med 337:1419-1428; Fligiel et al., (2003) J Invest Dermatol. 120:842-848; Varani et al., (2006) Am J Pathol. 168:1861-8; Chauhan and Shakya, (2009) Indian J Dermatol Venereol Leprol. 75:463-8). […]

A further data set deals with B16/F10 melanoma cells. The data set can be described thus: Melanin content in melanoma cells. It is filed as cell-based. The following applies: Mus musculus, OD 400 nm; for inhibition at 2 µg/mL: 2 μg/ml; for inhibition at 20 µg/mL: 20 μg/ml. On the procedure: B16 F0 mouse melanoma cells were cultured on the dish. The cells were treated with microbial zeaxanthin dissolved in dimethyl sulfoxide. After treated for 24 hrs and 48 hrs, respectively, the medium was removed and the cells were washed with PBS and then dissolved in 1 N NaOH containing 10% DMSO. The relative melanin content was determined at OD400 nm.

Each structure is given as a SMILES string.

Consider `CC1=C[C@H](O)CC(C)(C)[C@H]1/C=C/C(C)=C/C=C/C(C)=C/C=C/C=C(C)/C=C/C=C(C)/C=C/C1=C(C)C[C@@H](O)CC1(C)C` [lutein, reference compound], for which the “lipid peroxidation inhibitory activity (ferric thiocyanate method)” value in data set [1] came to 68.6%. The “lipid peroxidation inhibitory activity (conjugated diene method)” value in data set [2] is recorded as 68.7%.
What is called inhibition is the percentage by which the read-out fell short of the control. A high value points to strong suppression. Turning to `CC1=C(/C=C/C(C)=C/C=C/C(C)=C/C=C/C=C(C)/C=C/C=C(C)/C=C/C2=C(C)C[C@@H](O)CC2(C)C)C(C)(C)C[C@H](O)C1` [microbial zeaxanthin, 4-[18-(4-hydroxy-2,6,6-trimethyl-1-cyclohexenyl)-3,7,12,16-tetramethyl-octadeca-1,3,5,7,9,11,13,15,17-nonaenyl]-3,5,5-trimethyl-cyclohex-3-en-1-ol], the “inhibition on absorbance (TEAC)” value in data set [3] (62.5 μg/ml) is 15.68%; in data set [3] (125 μg/ml), 28.13%; in data set [3] (250 μg/ml), 53.35%; in data set [3] (500 μg/ml), 91.22%. In addition, the “inhibition on free MDA formation” value in data set [4] (125 μg/ml) worked out at 55.23%; in data set [4] (250 μg/ml), 61.05%; in data set [4] (500 μg/ml), 71.16%; in data set [4] (1000 μg/ml) it was 78.45%; in data set [4] (2000 μg/ml), 80.75%. Besides, the Solubility in chloroform result in data set [5] (chloroform) is listed as “soluble giving a clear intensive orange-red”. For the same molecule, the Solubility in ethanol result in data set [5] (ethanol) is “sparingly”. Further, the Solubility in water entry in data set [5] (water) is given as “insoluble”. Moreover, the “lipid peroxidation inhibitory activity (ferric thiocyanate method)” value in data set [1] is 66.9%. Also, the “lipid peroxidation inhibitory activity (conjugated diene method)” value in data set [2] is 67.4%. For the same molecule, the “inhibition on absorbance (DPPH)” value in data set [6] (62.5 μg/ml) is 10.02%; in data set [6] (125 μg/ml), 13.04%; in data set [6] (250 μg/ml) it was 30.18%; in data set [6] (500 μg/ml) it was 48.20%; in data set [6] (1000 μg/ml), 96.69%. Further, the “cell viability increased as compared to no zeaxanthin treatment” value stood at 18.9% in data set [7] (20 μg/ml) and 33.7% in data set [7] (50 μg/ml). The inhibition at 2 µg/mL with B16/F10 melanoma cells (24 hrs) was found to be 6.74%; in the data set on B16/F10 melanoma cells (48 hrs), 32.5%. The figures for the inhibition at 20 µg/mL in the data set on B16/F10 melanoma cells (24 hrs) and with B16/F10 melanoma cells (48 hrs) were 22.7% and 36.7%, respectively.
